Data from PubChem BioAssay (NCI).
“And” between values parts separate entries of the source, which are not always exact repeats. Equal values may be shown once.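 Interpolation was linear, between the two tested concentrations surrounding the appropriate level; five concentrations were tested over 48 hours in 96-well plates. GI50 is the concentration that inhibits growth by half. TGI: total growth inhibition.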

Assays:
Experiment in all cases: NCI-60 cell line screen, 48 h
SW-620 colon = system: SW-620 colon
SK-OV-3 ovarian = system: SK-OV-3 ovarian
SK-MEL-28 melanoma = system: SK-MEL-28 melanoma
SK-MEL-5 melanoma = system: SK-MEL-5 melanoma
SF-268 CNS = system: SF-268 CNS
MDA-MB-231 breast = system: MDA-MB-231 breast
NCI-H226 lung = system: NCI-H226 lung
MCF7 breast = system: MCF7 breast
UO-31 renal = system: UO-31 renal
DU-145 prostate = system: DU-145 prostate

SMILES	GI50 (SW-620 colon) [µM]	TGI (SW-620 colon) [µM]	GI50 (SK-OV-3 ovarian) [µM]	TGI (SK-OV-3 ovarian) [µM]	GI50 (SK-MEL-28 melanoma)	TGI (SK-MEL-28 melanoma)	GI50 (SK-MEL-5 melanoma) [µM]	TGI (SK-MEL-5 melanoma)	GI50 (SF-268 CNS) [µM]	TGI (SF-268 CNS) [µM]	GI50 (MDA-MB-231 breast) [µM]	TGI (MDA-MB-231 breast) [µM]	GI50 (NCI-H226 lung) [µM]	TGI (NCI-H226 lung) [µM]	GI50 (MCF7 breast) [µM]	TGI (MCF7 breast) [µM]	GI50 (UO-31 renal)	TGI (UO-31 renal)	GI50 (DU-145 prostate) [µM]	TGI (DU-145 prostate) [µM]
COC(=O)[C@@]12OC[C@]34[C@H]([C@@H](O)[C@@H]1O)[C@@]1(C)[C@H](O)C(=O)C=C(C)[C@@H]1C[C@H]3OC(=O)C(OC(C)=O)[C@@H]24 (some centres not stated)	0.0242	0.128	0.0522	1.12	0.019 µM	0.0642 µM	0.0162	0.0406 µM	0.0428	0.231	0.0979	0.366	0.025	0.0992	0.0214	0.0701	0.113 µM	0.449 µM	0.0445	0.206
C=C1/C(=C\C=C2/CCC[C@]3(C)[C@@H]([C@H](C)CCCC(C)(C)O)CC[C@@H]23)C[C@@H](OC(=O)CBr)C[C@@H]1O	1.78	3.96	14.9	29.5	4.95 µM	10.9 µM	2.46	6.41 µM	2.26	6.1	1.39	5.4	3.74	22.1	1.38	5.74	0.155 µM	0.292 µM	12.4	26.6
O=[N+]([O-])c1ccc2c(c1)Cc1cc(N=Cc3ccc4c(c3)OCO4)ccc1-2		> 100		> 100		> 100 µM		> 100 µM		> 100		> 100		> 100		> 100		> 100 µM		> 100
c1csc(-c2cn3nc(-c4c[nH]c5ccccc45)sc3n2)c1	0.434	> 100	2.8	82.7	4.74 µM	44 µM	0.714	15.1 µM	3.84	> 100	1.08	7.88	9.94	> 100	1.17	20.2	1.71 µM	> 100 µM	2.86	> 100
NC(=O)c1ccccc1Nc1ccc2nnc(-c3ccncc3)n2n1	5.6	19.1	15.4	44.4	15.3 µM	29.8 µM	4.74	16.9 µM	5.56	21	9.39	25.6	15	44.4	3.1	16.1	4.49 µM	17.6 µM	14.3	27.3
C[C@]12CCc3sc(NCCc4ccccc4)nc3C1=CC[C@@H]1[C@@H]2CC[C@]2(C)C(=O)CC[C@@H]12	2.3	5.28	> 100	> 100	3.37 µM	18.9 µM	4.57	52.7 µM	4.62	> 100	3.4	21.4	2.42	6.57	2.68	> 100	4.03 µM	25.1 µM	3.64	> 100
O=C(Nc1cccc(-n2cc(-c3ccncc3)c(-c3cc(O)cc(Cl)c3)n2)c1)Nc1ccc(Cl)c(C(F)(F)F)c1	3.29	10.7	4.11	30.7	2.01 µM	6.2 µM	1.69	3.23 µM	3.1	16	1.86	5.85	2.47	8.96	2.63	8.54	2.1 µM	6.14 µM	3.27	11.7
Cc1cc(NCCN(C(C)C)C(C)C)nc(/N=C(\N)Nc2ccc(Cl)c(C(F)(F)F)c2)n1	0.532	1.62	1.26	2.55	0.176 µM	0.32 µM	0.195	0.492 µM	0.67	1.76	0.292	1.04	1.96	4.15	0.269	0.851	0.201 µM	0.604 µM	1.47	3.04
O=C(Nc1ccncc1)C(=O)c1cn(Cc2ccc(Cl)cc2)c2ccccc12	0.0332	> 100	0.199	> 100	0.0711 µM	> 100 µM	0.0309	> 35 µM	0.0775	> 100	0.179	> 100	0.276	> 100	0.0363	> 100	0.0788 µM	> 100 µM	0.051	> 65
COc1cc(NC(C)CCCN)c2ncccc2c1 (configuration not stated)		> 100		> 100	22.1 µM and 74 µM	47.5 µM and > 100 µM		32.3 µM and 57.3 µM		> 100		> 100		> 100		31.5	15.2 µM and 42.9 µM	57.8 µM and > 100 µM		> 100
COc1c(O)cc2oc(-c3ccc(O)cc3)cc(=O)c2c1O		> 100		> 100		> 100 µM		63.7 µM		> 100		> 100		> 100		> 100		> 100 µM		> 100
NC(=O)c1ccc(I)c(N=O)c1	18.3	33.3	> 100	> 100	46.9 µM	> 100 µM	34.2	> 100 µM	62.1	> 100	35.5	> 100	58.8	> 100	39.6	> 100	19.9 µM	57.8 µM	43.7	> 100
CC(=O)C(=Cc1ccc(C=C(C(C)=O)C(C)=O)cc1)C(C)=O		1.83		17		4.48 µM		3.36 µM		3.97		4.4		7.8		2.36		3.1 µM		11.9
COc1cccc(-c2nn(-c3ccccc3)cc2-c2ccnc(NCCCNC(=O)Nc3ccc(Cl)c(Cl)c3)c2)c1	3.02	10.1	4.92	18.6	1.93 µM	4.16 µM	1.75	3.32 µM	3.32	13.9	1.97	5.03	5.61	41.6	1.94	3.71	1.78 µM	5.65 µM	5.47	23
CC1OC(OC2C[C@](O)(C(=O)CF)Cc3c(O)c4c(c(O)c32)C(=O)c2ccccc2C4=O)CC(N)C1O (some centres not stated)		0.741		1.04		1.91 µM		0.0657 µM		1.37		0.283		< 0.0171		1.08		1.02 µM		1.14
